The values that follow come from ChEMBL document CHEMBL1671667, “Impact of low-level resistance to fluoroquinolones due to qnrA1 and qnrS1 genes or a gyrA mutation on ciprofloxacin bactericidal activity in a murine model of Escherichia coli urinary tract infection” (Antimicrob Agents Chemother, 2009).

In one data set the test system is Klebsiella pneumoniae. Briefly: Antimicrobial activity against qnr-negative Klebsiella pneumoniae C2 harboring qnrA1 gene.
A short description of another data set: in vivo. Conditions: CBA, mouse, sc, 2.5 mg/kg.

In brackets after ≈: the same amount, converted by molar mass.

Description for in vivo: Cmax in immunocompetent CBA mouse infected with Escherichia coli at 2.5 mg/kg, sc administered as single dose after 15 mins by liquid chromatography

Molecule `O=C(O)c1cn(C2CC2)c2cc(N3CCNCC3)c(F)cc2c1=O` [CIPROFLOXACIN] showed an MIC in the data set on Klebsiella pneumoniae of 4 µg/mL (≈ 12.1 µM). In the data set “in vivo”, this molecule yielded a Cmax at 0.25 h of 1100 ng/mL.

A word on the MIC: it is the lowest concentration that inhibits growth of the organism. As usually defined, the Cmax is the maximum level reached in the sampled fluid or tissue.
